Assay results taken from ChEMBL document CHEMBL1201862, “PubChem BioAssay data set” (2004).
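How tested: cells in 96-well plates exposed to compound for 48 hours at five concentrations. Abbreviation: GI50, concentration required for 50% inhibition of growth.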 Activity calls are given as the source filed them. Rule as the data show it: active = GI50 up to about 1.1 µM and inactive = higher.

What was measured:
Assay in all cases: NCI-60 cell line screen, 48 h
HCT-116 = test system: HCT-116
SK-OV-3 = test system: SK-OV-3
OVCAR-5 = test system: OVCAR-5
786-0 = test system: 786-0
TK-10 = test system: TK-10
A498 = test system: A498
NCI/ADR-RES = test system: NCI/ADR-RES
CCRF-CEM = test system: CCRF-CEM
NCI-H460 = test system: NCI-H460
UO-31 = test system: UO-31
SK-MEL-2 = test system: SK-MEL-2
T47D = test system: T47D
BT-549 = test system: BT-549
PC-3 = test system: PC-3
K562 = test system: K562
DU-145 = test system: DU-145
HOP-92 = test system: HOP-92
U-251 = test system: U-251
Malme-3M = test system: Malme-3M
NCI-H226 = test system: NCI-H226

Measured: GI50

Oc1ccnc(SCc2ccc(Cl)cc2)n1
inactive: HCT-116 > 100 µM | SK-OV-3 > 100 µM | OVCAR-5 > 100 µM | 786-0 > 100 µM | TK-10 > 100 µM | A498 > 100 µM | NCI/ADR-RES > 100 µM | CCRF-CEM > 100 µM | NCI-H460 > 100 µM | UO-31 > 100 µM | SK-MEL-2 > 100 µM | T47D > 100 µM | BT-549 > 100 µM | PC-3 > 100 µM | K562 > 100 µM | DU-145 > 100 µM | HOP-92 > 100 µM | U-251 > 100 µM | Malme-3M > 100 µM

Clc1ccc(Oc2ccc(/N=C/c3ccc(Cl)cc3Cl)cc2Cl)cc1
inactive: HCT-116 33 µM | SK-OV-3 73.3 µM | OVCAR-5 > 100 µM | 786-0 22.4 µM | TK-10 > 100 µM | NCI-H226 > 100 µM | NCI/ADR-RES 25.7 µM | CCRF-CEM 4.29 µM | NCI-H460 63.7 µM | UO-31 21.6 µM | SK-MEL-2 61.2 µM | T47D 43.6 µM | BT-549 29.2 µM | PC-3 35 µM | DU-145 64.6 µM | HOP-92 34.2 µM | U-251 29.4 µM | Malme-3M 27.3 µM

O=C1CCCC/C1=C\c1ccc([N+](=O)[O-])cc1
inactive: HCT-116 12.4 µM | SK-OV-3 17.2 µM | OVCAR-5 54.2 µM | 786-0 14.9 µM | TK-10 8.67 µM | NCI/ADR-RES 19.5 µM | CCRF-CEM 2.91 µM | NCI-H460 35.4 µM | UO-31 19.3 µM | SK-MEL-2 21.5 µM | T47D 23.6 µM | BT-549 23.3 µM | PC-3 2.03 µM | K562 2.82 µM | DU-145 39.1 µM | HOP-92 19.6 µM | U-251 16.1 µM

O=C1CCC(N2C(=O)c3ccccc3C2=O)C(=O)N1 (configuration not stated) [THALIDOMIDE]
inactive: HCT-116 > 100 µM | SK-OV-3 > 100 µM | OVCAR-5 > 100 µM | 786-0 > 100 µM | NCI/ADR-RES > 100 µM | CCRF-CEM > 100 µM | NCI-H460 > 100 µM | UO-31 > 100 µM | SK-MEL-2 > 100 µM | T47D > 100 µM | BT-549 > 100 µM | PC-3 > 100 µM | K562 > 100 µM | DU-145 > 100 µM | HOP-92 > 100 µM | U-251 > 100 µM | Malme-3M > 100 µM

Cc1c(N2C(=O)C(Cl)C2/C=C/c2ccccc2)c(=O)n(-c2ccccc2)n1C (configuration not stated)
inactive: HCT-116 16.9 µM | SK-OV-3 32 µM | OVCAR-5 43.9 µM | 786-0 24.9 µM | TK-10 14.3 µM | NCI-H226 25.1 µM | NCI/ADR-RES > 100 µM | CCRF-CEM 16.1 µM | NCI-H460 26.7 µM | UO-31 28.1 µM | SK-MEL-2 17.3 µM | T47D 19.8 µM | BT-549 33.4 µM | PC-3 31.6 µM | K562 6.58 µM | DU-145 34.6 µM | HOP-92 14.1 µM | U-251 6.22 µM | Malme-3M 5.75 µM

O=c1oc2ccc([N+](=O)[O-])cc2c(Nc2ccc3c(c2)S(=O)(=O)c2ccccc2O3)c1[N+](=O)[O-]
inactive: HCT-116 73.5 µM | SK-OV-3 > 100 µM | OVCAR-5 > 100 µM | 786-0 > 100 µM | TK-10 > 100 µM | NCI-H226 35.9 µM | NCI/ADR-RES > 100 µM | CCRF-CEM 38.3 µM | NCI-H460 98.4 µM | UO-31 53.3 µM | SK-MEL-2 52.2 µM | T47D > 100 µM | BT-549 73.1 µM | PC-3 34.8 µM | K562 33 µM | DU-145 > 100 µM | HOP-92 51.2 µM | U-251 57.3 µM | Malme-3M > 100 µM

Cc1ccc(S(=O)(=O)N2CCCC2C(=O)O[C@H]2CC[C@H]3CC=C[C@H]32)cc1 (some centres not stated)
inactive: HCT-116 19.1 µM | SK-OV-3 33.7 µM | OVCAR-5 > 100 µM | 786-0 18.9 µM | TK-10 > 10 µM | NCI-H226 24.7 µM | A498 23.8 µM | NCI/ADR-RES 24.5 µM | CCRF-CEM 13.8 µM | NCI-H460 27 µM | UO-31 29.9 µM | SK-MEL-2 > 10 µM | T47D 38.3 µM | BT-549 47.4 µM | PC-3 25 µM | K562 14.9 µM | DU-145 > 10 µM | U-251 45.4 µM | Malme-3M 47.1 µM

O=c1cccc(Cl)[nH]1
inactive: HCT-116 > 100 µM | SK-OV-3 > 100 µM | OVCAR-5 > 100 µM | 786-0 > 100 µM | TK-10 > 100 µM | NCI-H226 > 100 µM | NCI/ADR-RES > 100 µM | CCRF-CEM > 100 µM | NCI-H460 > 100 µM | UO-31 > 100 µM | SK-MEL-2 > 100 µM | T47D > 100 µM | BT-549 > 100 µM | PC-3 > 100 µM | K562 > 100 µM | DU-145 > 100 µM | HOP-92 > 100 µM | U-251 > 100 µM | Malme-3M > 100 µM
